Reference: patent US8614327B2 (Vertex Pharmaceuticals Incorporated, priority 2004, dated 2013)

Biological target: T1, ΔF508-CFTR (Homo sapiens, UniProt P13569, DEL508-508)
T1 construct: expressed in transfected cells
Assay: Membrane potential optical (FRET/VIPR) assay, identification of potentiator compounds
Type: cell-based
Settings: Table 3, assay not given; for % Activity: relative efficacy
How it was run: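 Double-addition potentiator screen: compound delivered in gluconate-substituted Cl^--free medium, membrane potential followed via CC2-DMPE/DiSBAC2(3) FRET on VIPR. Cells were ΔF508-CFTR-expressing NIH3T3 mouse fibroblasts, held 2 h at 37° C. then 24 h at 27° C. before assay.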

T1 sequence (P13569 with tags, fused parts or gaps DEL508-508): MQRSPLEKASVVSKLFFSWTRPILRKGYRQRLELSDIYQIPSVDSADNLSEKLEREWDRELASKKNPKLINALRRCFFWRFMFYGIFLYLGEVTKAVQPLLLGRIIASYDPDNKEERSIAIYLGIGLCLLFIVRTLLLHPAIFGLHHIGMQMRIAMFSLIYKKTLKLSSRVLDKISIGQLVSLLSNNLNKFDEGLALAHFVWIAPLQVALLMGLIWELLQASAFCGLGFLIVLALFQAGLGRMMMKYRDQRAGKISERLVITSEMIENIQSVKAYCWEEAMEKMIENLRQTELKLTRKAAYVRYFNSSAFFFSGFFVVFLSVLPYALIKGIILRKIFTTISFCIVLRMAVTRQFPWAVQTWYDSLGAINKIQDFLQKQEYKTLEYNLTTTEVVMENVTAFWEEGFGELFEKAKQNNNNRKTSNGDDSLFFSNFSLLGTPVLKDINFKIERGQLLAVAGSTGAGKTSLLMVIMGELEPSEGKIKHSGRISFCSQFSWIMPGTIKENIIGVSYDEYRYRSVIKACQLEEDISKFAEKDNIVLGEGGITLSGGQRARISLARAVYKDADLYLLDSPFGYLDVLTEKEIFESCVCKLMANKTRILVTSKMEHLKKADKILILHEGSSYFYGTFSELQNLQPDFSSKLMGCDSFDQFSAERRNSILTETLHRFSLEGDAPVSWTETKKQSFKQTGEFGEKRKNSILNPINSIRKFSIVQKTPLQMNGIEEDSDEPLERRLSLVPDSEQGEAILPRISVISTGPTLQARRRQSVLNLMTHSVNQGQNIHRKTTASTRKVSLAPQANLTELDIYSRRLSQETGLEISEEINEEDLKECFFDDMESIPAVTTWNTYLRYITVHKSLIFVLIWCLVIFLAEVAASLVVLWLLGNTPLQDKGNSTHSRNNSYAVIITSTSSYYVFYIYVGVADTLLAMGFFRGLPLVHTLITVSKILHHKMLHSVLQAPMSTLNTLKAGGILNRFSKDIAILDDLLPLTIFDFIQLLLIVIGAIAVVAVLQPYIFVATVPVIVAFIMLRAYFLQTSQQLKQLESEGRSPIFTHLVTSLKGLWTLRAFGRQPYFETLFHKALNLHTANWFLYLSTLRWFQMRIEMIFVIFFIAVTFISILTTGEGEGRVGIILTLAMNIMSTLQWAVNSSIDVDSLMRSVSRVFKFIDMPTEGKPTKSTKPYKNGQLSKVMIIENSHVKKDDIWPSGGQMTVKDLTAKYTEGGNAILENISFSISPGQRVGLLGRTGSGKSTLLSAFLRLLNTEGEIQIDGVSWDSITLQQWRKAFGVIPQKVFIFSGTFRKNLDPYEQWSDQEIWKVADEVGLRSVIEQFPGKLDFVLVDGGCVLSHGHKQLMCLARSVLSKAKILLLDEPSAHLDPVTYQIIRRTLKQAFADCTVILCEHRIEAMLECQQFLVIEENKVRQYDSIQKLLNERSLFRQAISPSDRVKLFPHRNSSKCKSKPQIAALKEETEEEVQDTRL

CC(C)(C)OC(=O)N1CCc2ccc(NC(=O)c3c[nH]c4ccccc4c3=O)cc2C1 [Compound 107, 7-[(4-oxo-1H-quinolin-3-yl)carbonylamino]-1,2,3,4-tetrahydroisoquinoline-2-carboxylic acid tert-butyl ester]
EC50: 10 to 25 µM | % Activity: ++ (between 25% to 100%)

CC(C)(C)OC(=O)N1CCC(C)(C)c2ccc(NC(=O)c3c[nH]c4ccccc4c3=O)cc21 [Compound 108, 4,4-dimethyl-7-[(4-oxo-1H-quinolin-3-yl)carbonylamino]-1,2,3,4-tetrahydroquinoline-1-carboxylic acid tert-butyl ester]
EC50: < 10 µM | % Activity: ++ (between 25% to 100%)

CC(=O)N1CCCC(C)(C)c2ccc(NC(=O)c3c[nH]c4ccccc4c3=O)cc21 [Compound 109, N-(1-acetyl-2,3,4,5-tetrahydro-5,5-dimethyl-1H-benzo[b]azepin-8-yl)-1,4-dihydro-4-oxoquinoline-3-carboxamide]
% Activity: ++ (between 25% to 100%)

N#CCc1ccc(NC(=O)c2c[nH]c3ccccc3c2=O)cc1 [Compound 110, N-[4-(cyanomethyl)phenyl]-4-oxo-1H-quinoline-3-carboxamide]
EC50: 25 to 60 µM | % Activity: + (<25%)

O=C(Nc1ccccc1C(F)(F)F)c1c[nH]c2ccccc2c1=O [Compound 111, 4-oxo-N-[2-(trifluoromethyl)phenyl]-1H-quinoline-3-carboxamide]
EC50: < 10 µM | % Activity: ++ (between 25% to 100%)

CCOc1ccc2ncc(C(=O)Nc3ccc4cc[nH]c4c3)c(O)c2c1 [Compound 112, 6-ethoxy-4-hydroxy-N-(1H-indol-6-yl)quinoline-3-carboxamide]
EC50: < 10 µM | % Activity: ++ (between 25% to 100%)

Cc1c[nH]c2cc(NC(=O)c3c[nH]c4ccccc4c3=O)ccc12 [Compound 113, N-(3-methyl-1H-indol-6-yl)-4-oxo-1H-quinoline-3-carboxamide]
EC50: < 10 µM | % Activity: ++ (between 25% to 100%)

CCOc1ccccc1-c1ccc(NC(=O)OC(C)(C)C)cc1NC(=O)c1c[nH]c2ccccc2c1=O [Compound 114, [4-(2-ethoxyphenyl)-3-[(4-oxo-1H-quinolin-3-yl)carbonylamino]phenyl]aminoformic acid tert-butyl ester]
EC50: < 10 µM | % Activity: ++ (between 25% to 100%)

O=C(Nc1ccccc1-c1ccco1)c1c[nH]c2ccccc2c1=O [Compound 115, N-[2-(2-furyl)phenyl]-4-oxo-1H-quinoline-3-carboxamide]
EC50: < 10 µM | % Activity: ++ (between 25% to 100%)

O=C(Nc1ccc2cc[nH]c2c1)c1c[nH]c2cccc(O)c2c1=O [Compound 116, 5-hydroxy-N-(1H-indol-6-yl)-4-oxo-1H-quinoline-3-carboxamide]
EC50: < 10 µM | % Activity: ++ (between 25% to 100%)

CC(C)c1ccc(NC(=O)c2c[nH]c3ccccc3c2=O)cc1N(C)C [Compound 117, N-(3-dimethylamino-4-isopropyl-phenyl)-4-oxo-1H-quinoline-3-carboxamide]
EC50: < 10 µM | % Activity: ++ (between 25% to 100%)

O=C(Nc1ccccc1-c1ccc2[nH]ccc2c1)c1c[nH]c2ccccc2c1=O [Compound 118, N-[2-(1H-indol-5-yl)phenyl]-4-oxo-1H-quinoline-3-carboxamide]
% Activity: ++ (between 25% to 100%)

CCOC(=O)NCC(C)(C)c1ccc(NC(=O)c2c[nH]c3ccccc3c2=O)cc1 [Compound 119, [2-methyl-2-[4-[(4-oxo-1H-quinolin-3-yl)carbonylamino]phenyl]-propyl]aminoformic acid ethyl ester]
EC50: < 10 µM | % Activity: ++ (between 25% to 100%)

COc1ccc(C)cc1NC(=O)c1c[nH]c2ccccc2c1=O [Compound 120, N-(2-methoxy-5-methyl-phenyl)-4-oxo-1H-quinoline-3-carboxamide]
EC50: 10 to 25 µM | % Activity: ++ (between 25% to 100%)

COc1ccc(NC(=O)c2c[nH]c3ccccc3c2=O)cc1OC [Compound 122, N-(3,4-dimethoxyphenyl)-4-oxo-1H-quinoline-3-carboxamide]
EC50: 25 to 60 µM | % Activity: + (<25%)

O=C(Nc1ccccc1-c1ccoc1)c1c[nH]c2ccccc2c1=O [Compound 123, N-[2-(3-furyl)phenyl]-4-oxo-1H-quinoline-3-carboxamide]
% Activity: ++ (between 25% to 100%)

CC(C)(C)c1cc2cc[nH]c2cc1NC(=O)c1c[nH]c2ccc(F)cc2c1=O [Compound 124, 6-fluoro-4-oxo-N-(5-tert-butyl-1H-indol-6-yl)-1H-quinoline-3-carboxamide]
EC50: < 10 µM | % Activity: +++ (>100%)

CCc1cccc(NC(=O)c2c[nH]c3ccccc3c2=O)n1 [Compound 125, N-(6-ethyl-2-pyridyl)-4-oxo-1H-quinoline-3-carboxamide]
EC50: 10 to 25 µM | % Activity: ++ (between 25% to 100%)

COCCOCC(C)(C)c1ccc(NC(=O)c2c[nH]c3ccccc3c2=O)cc1O [Compound 126, N-[3-hydroxy-4-[2-(2-methoxyethoxy)-1,1-dimethyl-ethyl]-phenyl]-4-oxo-1H-quinoline-3-carboxamide]
EC50: < 10 µM | % Activity: ++ (between 25% to 100%)

CCOC(=O)Nc1cc(NC(=O)c2c[nH]c3ccccc3c2=O)ccc1C(C)(C)C [Compound 127, [5-[(4-oxo-1H-quinolin-3-yl)carbonylamino]-2-tert-butyl-phenyl]aminoformic acid ethyl ester]
EC50: < 10 µM | % Activity: ++ (between 25% to 100%)

Cc1ccc2c(c1)c(=O)c(C(=O)Nc1ccccc1-c1ccccc1)cn2C [Compound 128, 1,6-dimethyl-4-oxo-N-(2-phenylphenyl)-1H-quinoline-3-carboxamide]
EC50: 25 to 60 µM | % Activity: + (<25%)

CCc1ccc(NC(=O)c2c[nH]c3ccccc3c2=O)cc1NC(=O)OC [Compound 129, [2-ethyl-5-[(4-oxo-1H-quinolin-3-yl)carbonylamino]phenyl]aminoformic acid methyl ester]
EC50: 10 to 25 µM | % Activity: ++ (between 25% to 100%)

O=C(Nc1ccc2cc[nH]c2c1)c1cnc2cc(C(F)(F)F)cc(C(F)(F)F)c2c1O [Compound 130, 4-hydroxy-N-(1H-indol-6-yl)-5,7-bis(trifluoromethyl)quinoline-3-carboxamide]
EC50: < 10 µM | % Activity: ++ (between 25% to 100%)

Nc1cc(Cl)cc(NC(=O)c2c[nH]c3ccccc3c2=O)c1 [Compound 131, N-(3-amino-5-chloro-phenyl)-4-oxo-1H-quinoline-3-carboxamide]
% Activity: ++ (between 25% to 100%)

CCOc1ccc(NC(C)=O)cc1NC(=O)c1c[nH]c2ccccc2c1=O [Compound 132, N-(5-acetylamino-2-ethoxy-phenyl)-4-oxo-1H-quinoline-3-carboxamide]
EC50: 25 to 60 µM | % Activity: + (<25%)
